Literature values as cited in patent US20240050950A1, “GRADIENT-BASED MICROFLUIDIC CIRCUIT, DEVICE, AND METHOD FOR PERFORMING AN ASSAY” (priority 2020, published 2024).
Where a name gives a salt, the structure may show the parent alone. Read-outs that look alike come from different tables or passages of the source. Numbered stars: 1 amine (or outer) side, 2 acyl side, 3 side chain; on linkers, the order of the positions; unused ones are H or OH. Bridge positions count the residues as written; N and C are the ends. Square brackets hold non-standard residues; d marks the D form. Peptide text beside a SMILES is read from it. I, II: the chains in the order shown. * marks the point of attachment. Actinocin(9to1) = Cc1c2oc3c(C)ccc(C(=O)[*:1])c3nc-2c(C(=O)[*:2])c(N)c1=O; Ileψ(thiazoline)Cys = CC[C@H](C)[C@H](N)C1=N[C@H](C(=O)*)CS1; NMeV = CN[C@H](C(=O)O)C(C)C; dOrn = NCCC[C@@H](N)C(=O)O; Sar = CNCC(=O)O

Details: cited from earlier work
[1] = Table 1, antimicrobial agents/drugs
[2] = Table 3, antifungal drugs and other molecules

Compound | Molar volume [1] [cm^3] | Molar volume (Table 2, anticancer drugs) [cm^3] | other results
CC[C@H]1OC(=O)[C@H](C)[C@@H](O[C@H]2C[C@@](C)(OC)[C@@H](O)[C@H](C)O2)[C@H](C)[C@@H](O[C@@H]2O[C@H](C)C[C@H](N(C)C)[C@H]2O)[C@](C)(O)C[C@@H](C)CN(C)[C@H](C)[C@@H](O)[C@]1(C)O [Azithromycin] | 632.6 ± 5.0 |  | 
NC(=O)c1cnccn1 [Pyrazinecarboxamide] | 87.7 ± 7.0 |  | 
OC(Cn1cncn1)(Cn1cncn1)c1ccc(F)cc1F [Fluconazole] | 205.2 ± 7.0 |  | Molar volume [2]: 205.2 cm^3
NCCCNCCSP(=O)(O)O [Amifostine] |  | 156.6 ± 3.0 | 
CC(C)C[C@H](NC(=O)[C@H](CCc1ccccc1)NC(=O)CN1CCOCC1)C(=O)N[C@@H](Cc1ccccc1)C(=O)N[C@@H](CC(C)C)C(=O)[C@@]1(C)CO1 [Carfilzomib (Kyprolis), Carfilzomib] |  | 619.5 ± 3.0 | 
CNC(=O)c1cc(Oc2ccc(NC(=O)Nc3ccc(Cl)c(C(F)(F)F)c3)c(F)c2)ccn1 [Regorafenib] |  | 323.6 ± 3.0 | 
Nc1ncnc2c1ncn2[C@@H]1O[C@H](CO)C[C@H]1O [Cordycepin (3′-Deoxyadenosine), 3′-Deoxyadenosine] | 130.8 ± 7.0 |  | 
O=C[C@H](O)[C@@H](O)[C@@H](O)[C@H](O)CO [Galactose] |  |  | Molar volume [2]: 104.0 cm^3
CO[C@H]1[C@@H](OC)C[C@H](C)[C@@H](OC)C2=CC(=O)C=C(NC(=O)/C(C)=C/C=C\[C@H](OC)[C@@H](OC(N)=O)/C(C)=C/[C@@H]1C)C2=O [Herbimycin A] | 479.9 ± 5.0 |  | 
CN[C@H]1C[C@@H](N)[C@H](O)[C@@H](O[C@@H]2O[C@H](CO)[C@H](O)[C@@H]3OC4(O[C@H]23)O[C@H]([C@@H](N)CO)[C@H](O)[C@H](O)[C@H]4O)[C@@H]1O (stereo partly shown) [Hygromycin B (WK2130000), Hygromycin B] | 315.1 ± 5.0 |  | 
COc1cc2ncnc(Nc3ccc(F)c(Cl)c3)c2cc1NC(=O)/C=C/CN1CCCCC1 [Dacomitinib (Vizimpro), Dacomitinib] |  | 349.4 ± 3.0 | 
CO/N=C(\C(=O)N[C@@H]1C(=O)N2C(C(=O)O)=C(CSc3nc(=O)c(=O)[nH]n3C)CS[C@H]12)c1csc(N)n1 [Ceftriaxone] | 281.7 ± 7.0 |  | 
CC[C@@]1(O)C(=O)OCc2c1cc1n(c2=O)Cc2cc3ccccc3nc2-1 [(S)-(+)-Camptothecin (Camptothecin), (S)-(+)-Camptothecin] | 230.2 ± 5.0 |  | 
CC(C)(C#N)c1cc(Cn2cncn2)cc(C(C)(C)C#N)c1 [Anastrozole] |  | 270.2 ± 7.0 | 
CCCCCCCCCC(=O)N[C@@H](Cc1c[nH]c2ccccc12)C(=O)N[C@H](CC(N)=O)C(=O)N[C@@H](CC(=O)O)C(=O)N[C@@H]1C(=O)NCC(=O)N[C@@H](CCCN)C(=O)N[C@@H](CC(=O)O)C(=O)N[C@H](C)C(=O)N[C@@H](CC(=O)O)C(=O)NCC(=O)N[C@H](CO)C(=O)N[C@@H]([C@H](C)CC(=O)O)C(=O)N[C@@H](CC(=O)c2ccccc2N)C(=O)O[C@@H]1C [Daptomycin] | 1110.7 ± 5.0 |  | 
Cc1ccc(C(C)C)c(O)c1 [Thymol (5-Methyl-2-isopropylphenol), 5-Methyl-2-isopropylphenol] |  |  | Molar volume [2]: 150.2 cm^3
CC(=O)OC[C@H]1O[C@@H](n2ccc(=O)[nH]c2=O)[C@H](OC(C)=O)[C@@H]1OC(C)=O [Uridine Triacetate (Vistogard), Uridine Triacetate] |  | 257.5 ± 5.0 | 
CN(Cc1cnc2nc(N)nc(N)c2n1)c1ccc(C(=O)N[C@@H](CCC(=O)O)C(=O)O)cc1 [Methotrexate] |  | 295.6 ± 3.0 | 
CCN1CCN(c2cc3c(cc2F)c(=O)c(C(=O)O)cn3C2CC2)CC1 [Enrofloxacin (Baytril), Enrofloxacin] | 259.3 ± 3.0 |  | 
Cc1cccc(N(C)C(=S)Oc2ccc3ccccc3c2)c1 [Tolnaftate] |  |  | Molar volume [2]: 251.1 ± 3.0 cm^3
COc1c(OCCCN2CCOCC2)ccc2c1N=C(NC(=O)c1cnc(N)nc1)N1CCN=C21 [Aliqopa (Copanlisib Hydrochloride), Copanlisib Hydrochloride] |  | 317.6 ± 7.0 | 
Nc1nc(Cl)nc2c1ncn2[C@@H]1O[C@H](CO)[C@@H](O)[C@@H]1F [Clofarabine] |  | 143.0 ± 7.0 | 
CC[C@@H](C(=O)O)[C@@H]1O[C@@H]([C@@H](C)[C@H](O)[C@H](C)C(=O)[C@H](CC)[C@H]2O[C@]3(C=C[C@@H](O)[C@]4(CC[C@@](C)([C@H]5CC[C@](O)(CC)[C@H](C)O5)O4)O3)[C@H](C)C[C@@H]2C)[C@@H](C)C[C@@H]1C [Narasin] | 650.1 ± 5.0 |  | 
Clc1ccccc1C(c1ccccc1)(c1ccccc1)n1ccnc1 [Clotrimazole] | 302.7 ± 7.0 |  | 
CNC(=O)c1ccc(N2C(=S)N(c3cnc(C#N)c(C(F)(F)F)c3)C(=O)C23CCC3)cc1F [Apalutamide] |  | 300.1 ± 5.0 | 
CC(C)/N=c1\cc2n(-c3ccc(Cl)cc3)c3ccccc3nc-2cc1Nc1ccc(Cl)cc1 [Clofazimine] | 366.0 ± 7.0 |  | 
Nc1nc2nc[nH]c2c(=S)[nH]1 [Tabloid (Thioguanine), Thioguanine] |  | 96.4 ± 3.0 | 

Compound | Molar volume [1] [cm^3] | Molar volume (Table 2, anticancer drugs) [cm^3] | other results
COc1cccc2c1C(=O)c1c(O)c3c(c(O)c1C2=O)C[C@@](O)(C(=O)CO)C[C@@H]3O[C@H]1C[C@H](N)[C@H](O[C@@H]2CCCCO2)[C@H](C)O1 [Pirarubicin (THP), Pirarubicin] | 413.3 ± 5.0 |  | 
CC(C)N1CCN(c2ccc(OCC3COC(Cn4cncn4)(c4ccc(Cl)cc4Cl)O3)cc2)CC1 (stereo not shown) [Terconazole] |  |  | Molar volume [2]: 391.5 ± 7.0 cm^3
Cn1cnc2c(F)c(Nc3ccc(Br)cc3F)c(C(=O)NOCCO)cc21 [Binimetinib] |  | 264.1 ± 7.0 | 
COC(=O)Nc1nc2ccc(C(=O)c3ccccc3)cc2[nH]1 [Mebendazole] | 212.6 ± 3.0 |  | 
S=c1nc[nH]c2nc[nH]c12 [Mercaptopurine] |  | 94.1 ± 3.0 | 
CN1C2CCCC1CC(NC(=O)c1nn(C)c3ccccc13)C2 (stereo not shown) [Granisetron] |  | 234.8 ± 7.0 | 
C[C@@H]1O[C@@H]1P(=O)(O)O [Phosphomycin (Fosfomycin), Phosphomycin] | 88.4 ± 5.0 |  | 
N=C(N)NCc1cccc([131I])c1 [Azedra] |  | 148.6 ± 7.0 | 
O=C(c1cc(Cc2n[nH]c(=O)c3ccccc23)ccc1F)N1CCN(C(=O)C2CC2)CC1 [Lynparza (Olaparib), Olaparib] |  | 301.7 ± 7.0 | 
O=NN(CCCl)C(=O)NC1CCCCC1 [Lomustine] |  | 173.0 ± 7.0 | 
c1ccc2[nH]c(-c3cscn3)nc2c1 [2-(4-Thiazolyl)benzimidazole] |  |  | Molar volume [2]: 143.0 ± 3.0 cm^3
C[C@H]1CCC/C=C/[C@@H]2C[C@H](O)C[C@H]2[C@H](O)/C=C/C(=O)O1 [Brefeldin A] | 252.9 ± 3.0 |  | 
CC[C@H](C)[C@H](N)C1=N[C@H](C(=O)N[C@@H](CC(C)C)C(=O)N[C@H](CCC(=O)O)C(=O)N[C@H](C(=O)N[C@H]2CCCCNC(=O)[C@H](CC(N)=O)NC(=O)[C@@H](CC(=O)O)NC(=O)[C@H](Cc3cnc[nH]3)NC(=O)[C@@H](Cc3ccccc3)NC(=O)[C@H]([C@@H](C)CC)NC(=O)[C@@H](CCCN)NC2=O)[C@@H](C)CC)CS1 [Bacitracin] ({Ileψ(thiazoline)Cys}-L[dE]IK[dOrn]I[dF]H[dD]N; lactam 4-C) | 994.4 ± 7.0 |  | 
O=c1[nH]cc(F)c(=O)[nH]1 [Carac (Fluorouracil-Topical, Tolak), Fluorouracil] |  | 84.5 ± 5.0 | 
CN[C@@H]1[C@H](O)[C@H](NC)[C@H]2O[C@@]3(O)C(=O)C[C@@H](C)O[C@H]3O[C@@H]2[C@H]1O [Spectinomycin] | 231.6 ± 5.0 |  | 
CN1C[C@H](O)[C@@H](O)[C@H](O)[C@H]1CO [N-Methyl-1-deoxynojirimycin (1524564), N-Methyl-1-deoxynojirimycin] | 127.0 ± 3.0 |  | 
Cc1cn(-c2cc(NC(=O)c3ccc(C)c(Nc4nccc(-c5cccnc5)n4)c3)cc(C(F)(F)F)c2)cn1 [Nilotinib (Tasigna), Nilotinib] |  | 388.6 ± 7.0 | 
Cc1c2oc3c(C)ccc(C(=O)N[C@@H]4C(=O)N[C@H](C(C)C)C(=O)N5CCC[C@H]5C(=O)N(C)CC(=O)N(C)[C@@H](C(C)C)C(=O)O[C@@H]4C)c3nc-2c(C(=O)N[C@@H]2C(=O)N[C@H](C(C)C)C(=O)N3CCC[C@H]3C(=O)N(C)CC(=O)N(C)[C@@H](C(C)C)C(=O)O[C@@H]2C)c(N)c1=O [Actinomycin D] (I: T[dV]P[Sar][NMeV] / II: T[dV]P[Sar][NMeV]; ester I:1-I:C, II:1-II:C; linker I:N-II:N via Actinocin(9to1)) | 880.6 ± 7.0 | 880.6 ± 7.0 | 
C=C1[C@@H](C)[C@H]2[C@H](Cc3ccccc3)NC(=O)[C@]23[C@H](OC(C)=O)/C=C/[C@@](C)(O)C(=O)[C@@H](C)C/C=C/[C@H]3[C@@H]1O [Cytochalasin D (Zygosporin A, 1632828), Cytochalasin D] | 410.0 ± 5.0 |  | 
CO[C@@H]1[C@@H](OC(N)=O)[C@@H](O)[C@H](Oc2ccc3c(O)c(NC(=O)c4ccc(O)c(CC=C(C)C)c4)c(=O)oc3c2C)OC1(C)C [Novobiocin] | 430.9 ± 5.0 |  | 
Clc1ccc(C(Cn2ccnc2)OCc2ccsc2Cl)c(Cl)c1 (stereo not shown) [Tioconazole] |  |  | Molar volume [2]: 269.0 ± 7.0 cm^3
N#Cc1ccc(C(c2ccc(C#N)cc2)n2cncn2)cc1 [Femara (Letrozole), Letrozole] |  | 234.5 ± 7.0 | 
CO[C@H]1[C@@H](O)[C@H](O)[C@H](OC[C@@]23C[C@@H]4[C@H](C)CC[C@H]4[C@@]4(C=O)CC2C=C(C(C)C)[C@@]34C(=O)O)O[C@@H]1C [Sordarin] | 381.1 ± 5.0 |  | 
C[C@@H]([C@H](N)C(=O)N[C@H](C(=O)O)[C@H]1O[C@@H](n2ccc(=O)[nH]c2=O)[C@H](O)[C@@H]1O)[C@H](O)c1ccc(O)cn1 [Nikkomycin] | 300.9 ± 3.0 |  | 
CN(CC[C@H](N)CC(=O)N[C@H]1C=C[C@H](n2ccc(N)nc2=O)O[C@@H]1C(=O)O)C(=N)N [Blasticidine (Blasticidin S), Blasticidin S] | 261.9 ± 7.0 |  | 
O=C(O)CCCc1ccc(N(CCCl)CCCl)cc1 [Chlorambucil] |  | 243.6 ± 3.0 | 
